Legend:
[1] = system: constitutive active colorectal cancer cell (CRC) Wnt pathway, HCT116 TOPFlash; experiment: Cellular reporter assay, HCT116 Super TopFlash (constitutive active Wnt pathway), luciferase expression; format: cell-based; settings: Homo sapiens, HCT116 Super TopFlash reporter cells, 36 hours incubation, dilution series 50 μM to 15 nM
Protocol: In order to discover and characterize small molecules which inhibit the constitutive active colorectal cancer cell (CRC) Wnt pathway, a cellular reporter assay was employed. The corresponding assay cell was generated by transfection of the colorectal cancer cell line HCT116 (ATCC, #CCL-247) with the Super TopFlash vector (Morin, Science 275, 1997, 1787-1790; Molenaar et al., Cell 86 (3), 1996, 391-399). The HCT116 cell line is cultivated at 37° C. and 5% CO2 in DMEM/F-12 (Life Technologies, #11320-074), supplemented with 2 mM glutamine, 20 mM HEPES, 1.4 mM pyruvate, 0.15% Na-bicarbonate and 10% foetal bovine serum (GIBCO, #10270), this cancer cell line is pathophysiological relevant since it carries a deletion of position S45 in the β-catenin gene, leading to constitutive active Wnt signaling. Stable transfectants were generated by cotransfection with pcDNA3 and selection of stable transfected cells with 1 mg/ml G418.
(§1) In preparation of the assay, the two cell lines were plated 24 hours before at 10000 cells per well of a 384 micro titre plate (MTP) in 30 μL growth medium. Selective inhibitory activity for small molecules on the mutated Wnt pathway was determined after parallel incubation of both (TOP and FOP) HCT116 reporter cell lines with a compound dilution series from 50 μM to 15 nM in steps of 3.16-fold dilutions in CAFTY buffer (130 mM NaCl, 5 mM KCl, 20 mM HEPES, 1 mM MgCl2, 5 mM NaHCO3, pH 7.4) containing 2 mM Ca^2+ and 0.01% BSA. The compounds were thereby serially prediluted in 100% DMSO and thereafter in addition 50 fold into the CAFTY compound dilution buffer (described above). From this dilution 10 μL were added to the cells in 30 μL growth medium and incubated for 36 hours at 37° C. and 5% CO2. Thereafter luciferase assay buffer (1:1 mixture of luciferase substrate buffer (20 mM Tricine, 2.67 mM MgSO4, 0.1 mM EDTA, 4 mM DTT, 270 μM Coenzyme A, 470 μM Luciferin, 530 μM ATP, ph adjusted to pH 7.8 with a sufficient volume of 5M NaOH) and Triton buffer (30 mL Triton X-100, 115 mL glycerol, 308 mg Dithiothreitol, 4.45 g Na2HPO4.2H2O, 3.03 g TRIS HCl, ad 1 l H20, pH 7.8) was added as equal volume to the compound solution on the cells to determine luciferase expression as a measure of Wnt signaling activity in a luminometer.

HCT116 FOPFlash = experiment: Control reporter assay, HCT116 FOP control vector (non-functional TCF elements), luciferase expression; format: cell-based; settings: Homo sapiens, HCT116 FOP control reporter cells, 36 hours incubation, dilution series 50 μM to 15 nM
Protocol: In a parallel approach, HCT116 cells were cotransfected with the FOP control vector and pcDNA3. The FOP vector is identical to the TOP construct, but it contains instead of functional TCF elements a randomized, non-functional sequence. For this transfection a stable transfected cell line was generated as well.
as §1

Work on `CN1CCN(CC(=O)Nc2cc(C(=O)Nc3nnc(-c4cncc(Cl)c4)s3)ccc2OC(F)(F)F)CC1` [Example 40, formic acid-N-[5-(5-chloropyridin-3-yl)-1,3,4-thiadiazol-2-yl]-3-{[(4-methylpiperazin-1-yl)acetyl]amino}-4-(trifluoromethoxy)benzamide (1:1)] yielded an IC50 ([1]; HCT-116, 36 h) of 0.114 µM and an IC50 (HCT116 FOPFlash; HCT-116, 36 h) of at least 50 µM.
`CN1CCN(CC(=O)Nc2cc(C(=O)Nc3nnc(-c4cncnc4)s3)ccc2OC(F)(F)F)CC1` [Example 87, 3-{[(4-methylpiperazin-1-yl)acetyl]amino}-N-[5-(pyrimidin-5-yl)-1,3,4-thiadiazol-2-yl)-4-(trifluoromethoxy)benzamide] was tested, and the IC50 ([1]; HCT-116, 36 h) was 18 µM and the IC50 (HCT116 FOPFlash; HCT-116, 36 h) was at least 50 µM.
For `CN1CCN(CC(=O)Nc2cc(C(=O)Nc3nnc(-c4cnc(N)s4)s3)ccc2OC(F)(F)F)CC1` [Example 66, N-[5-(2-amino-1,3-thiazol-5-yl)-1,3,4-thiadiazol-2-yl]-3-{[(4-methylpiperazin-1-yl)acetyl]amino}-4-(trifluoromethoxy)benzamide], the IC50 ([1]; HCT-116, 36 h) was 1.47 µM and the IC50 (HCT116 FOPFlash; HCT-116, 36 h) was at least 50 µM.
`Nc1ccc(-c2nnc(NC(=O)c3ccc(OC(F)(F)F)c(NC(=O)CN4CCOCC4)c3)s2)cn1` [Example 55, N-[5-(6-aminopyridin-3-yl)-1,3,4-thiadiazol-2-yl]-3-[(morpholin-4-ylacetyl)amino]-4-(trifluoromethoxy)benzamide] gave an IC50 ([1]; HCT-116, 36 h) of 0.24 µM and an IC50 (HCT116 FOPFlash; HCT-116, 36 h) of at least 50 µM.
`Cc1nccnc1-c1nnc(NC(=O)c2ccc(OC(F)(F)F)c(NC(=O)CN3CCN(C)CC3)c2)s1` [Example 41, 1-methyl-4-(2-{[5-{[5-(3-methylpyrazin-2-yl)-1,3,4-thiadiazol-2-yl]carbamoyl}-2-(trifluoromethoxy)phenyl]amino}-2-oxoethyl)piperazin-1-ium hexafluorophosphate] was tested, and the IC50 ([1]; HCT-116) was 0.86 µM and the IC50 (HCT116 FOPFlash; HCT-116) was at least 50 µM.
`Cc1ccncc1-c1nnc(NC(=O)c2cc(NC(=O)CN3CCN(C)CC3)c(OC(F)(F)F)cc2F)s1` [Example 78, 2-fluoro-5-{[(4-methylpiperazin-1-yl)acetyl]amino}-N-[5-(4-methylpyridin-3-yl)-1,3,4-thiadiazol-2-yl]-4-(trifluoromethoxy)benzamide] was tested, and the IC50 ([1]; HCT-116, 36 h) was 0.24 µM and the IC50 (HCT116 FOPFlash; HCT-116, 36 h) was at least 50 µM.
With `Cc1ccncc1-c1nnc(NC(=O)c2ccc(OC3COC3)c(NC(=O)CN3CCOCC3)c2)s1` [Example 79, N-[5-(4-methylpyridin-3-yl)-1,3,4-thiadiazol-2-yl]-3-[(morpholin-4-ylacetyl)amino]-4-(oxetan-3-yloxy)benzamide] the IC50 ([1]; HCT-116, 36 h) was 0.24 µM and the IC50 (HCT116 FOPFlash; HCT-116, 36 h) was at least 50 µM.
In the case of `Nc1ncc(-c2nnc(NC(=O)c3ccc(OC(F)(F)F)c(NC(=O)CN4CCOCC4)c3)s2)cn1` [Example 94, N-[5-(2-aminopyrimidin-5-yl)-1,3,4-thiadiazol-2-yl]-3-[(morpholin-4-ylacetyl)amino]-4-(trifluoromethoxy)benzamide], the IC50 ([1]; HCT-116, 36 h) is reported as 23.2 µM and the IC50 (HCT116 FOPFlash; HCT-116, 36 h) is reported as at least 50 µM.
With `Cc1ncsc1-c1nnc(NC(=O)c2ccc(OC(F)(F)F)c(NC(=O)CN3CCN(C)CC3)c2)s1` [Example 111, 3-{[(4-methylpiperazin-1-yl)acetyl]amino}-N-[5-(4-methyl-1,3-thiazol-5-yl)-1,3,4-thiadiazol-2-yl]-4-(trifluoromethoxy)benzamide] the IC50 ([1]; HCT-116, 36 h) was at least 50 µM and the IC50 (HCT116 FOPFlash; HCT-116, 36 h) was at least 50 µM.
`COCCOc1ccc(C(=O)Nc2nnc(-c3cnccc3C)s2)cc1NC(=O)CN1CCN(C)CC1` [Example 73, 4-(2-methoxyethoxy)-3-{[(4-methylpiperazin-1-yl)acetyl]amino}-N-[5-(4-methylpyridin-3-yl)-1,3,4-thiadiazol-2-yl]benzamide] was tested, and the IC50 ([1]; HCT-116, 36 h) was 1 µM and the IC50 (HCT116 FOPFlash; HCT-116, 36 h) was at least 50 µM.
With `Nc1ccc(-c2nnc(NC(=O)c3ccc(OC(F)(F)F)c(NC(=O)C4(N5CCOCC5)CC4)c3)s2)cn1` [Example 49, N-[5-(6-aminopyridin-3-yl)-1,3,4-thiadiazol-2-yl]-3-({[1-(morpholin-4-yl)cyclopropyl]carbonyl}amino)-4-(trifluoromethoxy)benzamide] the IC50 ([1]; HCT-116, 36 h) was 0.31 µM and the IC50 (HCT116 FOPFlash; HCT-116, 36 h) was at least 50 µM.
For `COc1ccc(NC(=O)c2ccc(-c3cccs3)nc2)cc1NC(=O)CN1CCOCC1` [Example 24, N-{4-methoxy-3-[(morpholin-4-ylacetyl)amino]phenyl}-6-(thiophen-2-yl)pyridine-3-carboxamide], the IC50 ([1]; HCT-116, 36 h) was 4 µM and the IC50 (HCT116 FOPFlash; HCT-116, 36 h) was at least 50 µM.
For `O=C(CN1CCOCC1)Nc1cc(C(=O)Nc2nnc(-c3cccnc3)s2)ccc1OC1COC1` [Example 113, 3-[(morpholin-4-ylacetyl)amino)-4-(oxetan-3 yloxy)-N-[5-(pyridin-3-yl)-1,3,4-thiadiazol-2-yl]benzamide], the IC50 ([1]; HCT-116, 36 h) was 27 µM and the IC50 (HCT116 FOPFlash; HCT-116, 36 h) was at least 50 µM.
Compound `CN1CCN(CC(=O)Nc2cc(C(=O)Nc3nnc(-c4cnc(N)nc4)s3)ccc2OC(F)(F)F)CC1` [Example 31, N-[5-(2-aminopyrimidin-5-yl)-1,3,4-thiadiazol-2-yl]-3-{[(4-methylpiperazin-1-yl)acetyl]amino}-4-(trifluoromethoxy)benzamide] has an IC50 ([1]; HCT-116, 36 h) of 0.973 µM and an IC50 (HCT116 FOPFlash; HCT-116, 36 h) of at least 50 µM.
`O=C(CN1CCOCC1)Nc1cc(C(=O)Nc2ccc(-c3cccnc3)cn2)ccc1OC(F)(F)F` [Example 14, N-(3,3′-bipyridin-6-yl)-3-[(morpholin-4-ylacetyl)amino]-4-(trifluoromethoxy)benzamide] showed an IC50 ([1]; HCT-116, 36 h) of 0.0423 µM and an IC50 (HCT116 FOPFlash; HCT-116, 36 h) of at least 50 µM.
Work on `O=C(Nc1nnc(-c2cccnc2)s1)c1ccc(Cl)c(NC(=O)C2(N3CCN(C4CC4)CC3)CC2)c1` [Example 85, 4-chloro-3-({[1-(4-cyclopropylpiperazin-1-yl)cyclopropyl]carbonyl}amino)-N-[5-(pyridin-3-yl)-1,3,4-thiadiazol-2-yl]benzamide] yielded an IC50 ([1]; HCT-116, 36 h) of 12.5 µM and an IC50 (HCT116 FOPFlash; HCT-116, 36 h) of at least 50 µM.
`CN1CCN(CC(=O)Nc2cc(C(=O)Nc3cnc(-c4ccc(N)nc4)cn3)ccc2OC(F)(F)F)CC1` [Example 54, N-[5-(6-aminopyridin-3-yl)pyrazin-2-yl]-3-{[(4-methylpiperazin-1-yl)acetyl]amino}-4-(trifluoromethoxy)benzamide] gave an IC50 ([1]; HCT-116, 36 h) of 0.0355 µM and an IC50 (HCT116 FOPFlash; HCT-116, 36 h) of at least 50 µM.
With `CN1CCN(CC(=O)Nc2cc(C(=O)Nc3nnc(-c4cccnc4)s3)ccc2OC2CC2)CC1` [Example 34, 4-(cyclopropyloxy)-3-{[(4-methylpiperazin-1-yl)acetyl]amino}-N-[5-(pyridin-3-yl)-1,3,4-thiadiazol-2-yl]benzamide] the IC50 ([1]; HCT-116, 36 h) was 0.38 µM and the IC50 (HCT116 FOPFlash; HCT-116, 36 h) was 14 µM.
`Nc1cc(-c2nnc(NC(=O)c3ccc(OC(F)(F)F)c(NC(=O)CN4CCOCC4)c3)s2)ccn1` [Example 98, N-[5-(2-aminopyridin-4-yl)-1,3,4-thiadiazol-2-yl]-3-[(morpholin-4-ylacetyl)amino)-4-(trifluoromethoxy)benzamide] was tested, and the IC50 ([1]; HCT-116, 36 h) was at least 50 µM and the IC50 (HCT116 FOPFlash; HCT-116, 36 h) was at least 50 µM.
With `COCCCOc1ccc(C(=O)Nc2nnc(-c3cnccc3C)s2)cc1NC(=O)CN1CCOCC1` [Example 74, 4-(3-methoxypropoxy)-N-[5-(4-methylpyridin-3-yl)-1,3,4-thiadiazol-2-yl)-3-[(morpholin-4-ylacetyl)amino]benzamide] the IC50 ([1]; HCT-116, 36 h) was 3.7 µM and the IC50 (HCT116 FOPFlash; HCT-116, 36 h) was at least 50 µM.
`CN1CCN(CC(=O)Nc2cc(C(=O)Nc3nnc(-c4cnccc4C(F)(F)F)s3)ccc2OC(F)(F)F)CC1` [Example 70, 3-{[(4-methylpiperazin-1-yl)acetyl]amino}-4-(trifluoromethoxy)-N-{5-[4-(trifluoromethyl)pyridin-3-yl)-1,3,4-thiadiazol-2-yl}benzamide] was tested, and the IC50 ([1]; HCT-116, 36 h) was 5.15 µM and the IC50 (HCT116 FOPFlash; HCT-116, 36 h) was at least 50 µM.
`CN1CCN(CC(=O)Nc2cc(C(=O)Nc3nnc(-c4cnccc4F)s3)ccc2OC(F)(F)F)CC1` [Example 109, N-[5-(4-fluoropyridin-3-yl)-1,3,4-thiadiazol-2-yl]-3-{[(4-methylpiperazin-1-yl)acetyl]amino}-4-(trifluoromethoxy}benzamide] showed an IC50 ([1]; HCT-116, 36 h) of 32 µM and an IC50 (HCT116 FOPFlash; HCT-116, 36 h) of at least 50 µM.
`O=C(CN1CCOCC1)Nc1cc(C(=O)Nc2nnc(-c3cncnc3)s2)ccc1OC1CC1` [Example 72, 4-(cyclopropyloxy)-3-[(morpholin-4-ylacetyl)amino]-N-[5-(pyrimidin-5-yl)-1,3-4-thiadiazol-2-yl)benzamide] was tested, and the IC50 ([1]; HCT-116, 36 h) was 1.3 µM and the IC50 (HCT116 FOPFlash; HCT-116, 36 h) was at least 50 µM.
